Reference: BindingDB's records for doi:10.1016/j.bmc.2019.02.015 (2019)

Columns and labels:
[1] = Inhibition of mouse GAT-3 expressed in HEK293 cells assessed as decrease in [3H]GABA uptake preincubated for 25 mins followed by [3H]GABA addition and measured after 4 mins by scintillation counting analysis
[2] = Inhibition of mouse GAT-2 expressed in HEK293 cells assessed as decrease in [3H]GABA uptake preincubated for 25 mins followed by [3H]GABA addition and measured after 10 mins by scintillation counting analysis

| SMILES | IC50 [1] [µM] | IC50 [2] [µM] |
| --- | --- | --- |
| O=C(O)[C@@H]1CCCN(CCON=Cc2ccccc2-c2ccc(Cl)cc2Cl)C1 | 57.5 | 42.7 |
| O=C(O)C1CCCN(CCON=Cc2ccccc2-c2ccc(Cl)cc2Cl)C1 (stereo unspecified) |  | 45.7 |
| O=C(O)C1CCCN(CCON=Cc2cc(F)ccc2-c2ccc(Cl)cc2Cl)C1 (stereo unspecified) |  | 17.8 |
| O=C(O)C1CCCN(CCON=Cc2sccc2-c2ccc(Cl)cc2Cl)C1 (stereo unspecified) | 91.2 | 38 |
